Test in all cases: MIC determination by agar dilution (Mueller Hinton Agar)
Assay type in all cases: cell-based
(Agar dilution tests growth on a series of plates holding different concentrations.)

One test has as its system Acinetobacter sp. The conditions noted are these: Culture Number 30278, 35° C., 20 hours, read-out: Minimum Inhibitory Concentration. Here is the method:
(§1) The compounds of this invention and their respective pharmaceutically acceptable salts have antibiotic activity against a variety of gram-negative bacteria including Escherichia coli, Klebsiella pneumoniae and Pseudomonas aeruginosa. The compounds are useful for treating bacterial infections in animals, including and most preferably humans. Compounds of the invention are tested for in vitro antimicrobial activity using standard testing procedures such as the determination of minimum inhibitory concentration (MIC) by methods described in "Methods for Dilution Antimicrobial Susceptibility Tests for Bacteria That Grow Aerobically" (M7-A) Published December 1985 by the National Committee for Clinical Laboratory standards, 771 East Lancaster Avenue, Villanova, Pa., 19084. Briefly, MIC values are determined in unsupplemented Mueller Hinton Agar (MHA). The compounds tested are diluted serially into molten MHA at 47° C. The agar is poured into petri dishes and allowed to harden. The various bacteria used for testing are grown overnight on MHA at 35° C. and transferred to Tryptiease Soy Broth (TSB) until a turbidity of 0.5 McFarland standard is obtained. The bacteria are diluted one to twenty in TSB and inoculated on the plates (1 μl using a Steers replicator). […] The MIC test results of four typical compounds of this invention.

Another test concerns Citrobacter freundii. The conditions noted are these: Culture Number 3507, 35° C., 20 hours, read-out: Minimum Inhibitory Concentration. How it is done:
as §1

A further test has as its system Enterobacter cloacae. The note with it: 20 h, read-out: Minimum Inhibitory Concentration. How it is done:
as §1

The test system of a further test is Escherichia coli. The note with it: 20 h, read-out: Minimum Inhibitory Concentration. How it is done: as §1
The next test has as its system Klebsiella oxytoca. The conditions noted are these: 20 h, read-out: Minimum Inhibitory Concentration. How it is done: as §1
For the next test, the system named is Klebsiella pneumoniae. The conditions noted are these: Culture Number 58, 35° C., 20 hours, read-out: Minimum Inhibitory Concentration. How it is done: as §1
For another test, the system named is Proteus vulgaris. The note with it: Culture Number 9679, 35° C., 20 hours, read-out: Minimum Inhibitory Concentration. How it is done:
as §1

In the next test the test system is Pseudomonas aeruginosa. The note with it: 20 h, read-out: Minimum Inhibitory Concentration. Here is the method:
as §1

For the next test, the system named is Serratia marcescens. The note with it: Culture Number 6888, 35° C., 20 hours, read-out: Minimum Inhibitory Concentration. Here is the method: as §1
A further test has as its system Staphylococcus aureus. The conditions noted are these: 35° C., 20 hours; for MIC: Staphylococcus aureus, read-out: Minimum Inhibitory Concentration. Here is the method: as §1
A further test concerns Streptococcus pneumoniae. The conditions noted are these: Culture Number 41, 35° C., 20 hours, read-out: Minimum Inhibitory Concentration. Here is the method: as §1
The next test has as its system Streptococcus pyogenes. The conditions noted are these: Culture Number 152, 35° C., 20 hours, read-out: Minimum Inhibitory Concentration. Here is the method:
as §1

The subject of the next test is Staphylococcus epidermis. The note with it: Culture Number 30031, 35° C., 20 hours, read-out: Minimum Inhibitory Concentration. How it is done: as §1
A further test concerns Streptococcus faecalis. The note with it: Enterococcus faecalis, 35° C., 20 hours, read-out: Minimum Inhibitory Concentration. Here is the method:
as §1

Test [1] deals with Acinetobacter calcoaceticus. The conditions noted are these: Culture Number 12170, 35° C., 20 hours, read-out: Minimum Inhibitory Concentration. Here is the method:
as §1

In brackets after ≈: the same amount, converted by molar mass. Where two headings read alike, the source gives them in different places.

On to `CC(C)(O/N=C(\C(=O)N[C@H]1CN(C(=O)NS(=O)(=O)N[C@@H]2CN(C(=O)c3cc(=O)c(O)c[nH]3)NC2=O)C1=O)c1csc(N)n1)C(=O)O` [60(d), 3(S)-3-[2-(2-Amino-4-thiazolyl)-Z-(2)(carboxyisopropyloxyimino)-acetamido]-1-[(3-hydroxy-4-pyridon-6-yl)-1-carbonyl-pyrazolidinone-4(R)-amino]-sulfonyl-aminocarbonyl-2-azetidinone], for which the MIC with Acinetobacter sp. is 1 µg/mL (≈ 1.46 µM); in the test with Citrobacter freundii, 0.06 µg/mL (≈ 0.0876 µM); in the test on Enterobacter cloacae (Culture Number 9381, 35° C.), 4 µg/mL (≈ 5.84 µM); in the test with Enterobacter cloacae (Culture Number 9382, 35° C.) it was 1 µg/mL (≈ 1.46 µM); with Escherichia coli (Culture Number 9379, 35° C.), 0.015 µg/mL (≈ 0.0219 µM); in the test with Escherichia coli (Culture Number 9380, 35° C.) it was under 0.008 µg/mL. In addition, the MIC with Escherichia coli (Culture Number 9451, 35° C.) was found to be 0.015 µg/mL (≈ 0.0219 µM); in the test with Klebsiella oxytoca (Culture Number 9383, 35° C.), 0.125 µg/mL (≈ 0.183 µM); in the test on Klebsiella oxytoca (Culture Number 9384, 35° C.), 0.125 µg/mL (≈ 0.183 µM); in the test on Klebsiella pneumoniae, 0.5 µg/mL (≈ 0.73 µM); in the test with Proteus vulgaris it was 0.06 µg/mL (≈ 0.0876 µM); in the test on Pseudomonas aeruginosa (Culture Number 231, 35° C.), 0.25 µg/mL (≈ 0.365 µM). The MIC in the test on Pseudomonas aeruginosa (Culture Number 6676, 35° C.) is 2 µg/mL (≈ 2.92 µM); in the test on Pseudomonas aeruginosa (Culture Number 9191, 35° C.), 0.125 µg/mL (≈ 0.183 µM); with Serratia marcescens, 0.03 µg/mL (≈ 0.0438 µM); with Staphylococcus aureus (Culture Number 9218), 64 µg/mL (≈ 93.5 µM); in the test on Streptococcus pneumoniae, over 64 µg/mL; in the test with Streptococcus pyogenes it was over 64 µg/mL.

As for `CC(C)(O/N=C(\C(=O)N[C@H]1CN(C(=O)NS(=O)(=O)N[C@H]2CN(C(=O)c3cc(=O)c(O)c[nH]3)NC2=O)C1=O)c1csc(N)n1)C(=O)O` [60(b), 3(S)-3-[2-(2-Amino-4-thiazoyl)-Z-(2)-(carboxyisopropyloxyimino)acetamido]-1-[(3-hydroxy-4-pyridon-6-yl)-1-carbonyl-pyrazolidinone-4-(S)-amino]-sulfonyl-amino-carbonyl-2-azetidinone], the MIC in the test with Citrobacter freundii was 0.03 µg/mL (≈ 0.0438 µM); in the test with Enterobacter cloacae (Culture Number 9381, 35° C.), 8 µg/mL (≈ 11.7 µM); in the test on Enterobacter cloacae (Culture Number 9382, 35° C.), 1 µg/mL (≈ 1.46 µM); in the test on Escherichia coli (Culture Number 9379, 35° C.), under 0.008 µg/mL; in the test on Escherichia coli (Culture Number 9380, 35° C.) it was under 0.008 µg/mL; in the test with Escherichia coli (Culture Number 9451, 35° C.), under 0.008 µg/mL. Also, the MIC in the test with Klebsiella oxytoca (Culture Number 9383, 35° C.) was 0.125 µg/mL (≈ 0.183 µM); in the test with Klebsiella oxytoca (Culture Number 9384, 35° C.) it was 0.06 µg/mL (≈ 0.0876 µM); in the test on Klebsiella pneumoniae, 0.5 µg/mL (≈ 0.73 µM); in the test with Proteus vulgaris, 0.06 µg/mL (≈ 0.0876 µM); with Pseudomonas aeruginosa (Culture Number 231, 35° C.), 0.25 µg/mL (≈ 0.365 µM); in the test with Pseudomonas aeruginosa (Culture Number 9191, 35° C.) it was 0.25 µg/mL (≈ 0.365 µM). The MIC in the test with Serratia marcescens was 0.03 µg/mL (≈ 0.0438 µM); in the test with Staphylococcus aureus (Culture Number 9218), over 64 µg/mL; in the test with Staphylococcus epidermis, over 64 µg/mL; in the test on Streptococcus faecalis (Culture Number 694) it was over 64 µg/mL; in the test with Streptococcus pneumoniae it was over 64 µg/mL; with Streptococcus pyogenes it was 64 µg/mL (≈ 93.5 µM). Moreover, the “Minimum Inhibitory Concentration” value in the test on Staphylococcus aureus (Culture Number 3665), in the test with Staphylococcus aureus (Culture Number 6685) and in the test on Staphylococcus aureus (Culture Number 9213) was over 64 µg/mL throughout.

Turning to `C[C@H]1[C@H](NS(=O)(=O)NC(=O)N2C[C@H](NC(=O)/C(=N\OC(C)(C)C(=O)O)c3csc(N)n3)C2=O)C(=O)NN1C(=O)c1cc(=O)c(O)c[nH]1` [60(m), 3(S)-3-[2 (2-amino-4-thiazoyl)-Z-(2)(carboxyisopropyloxyimino)-acetamido]-1-[(3-hydroxy-4-pyridon-6-yl) 1-carbonyl-5(S)-methyl-pyrazolidinone-4(S)-amino]-sulfonylaminocarbonyl-2-azetidinone], the MIC was 2 µg/mL (≈ 2.86 µM) in [1]; 0.03 µg/mL (≈ 0.0429 µM) with Citrobacter freundii; 8 µg/mL (≈ 11.5 µM) in the test with Enterobacter cloacae (Culture Number 9381, 35° C.); 2 µg/mL (≈ 2.86 µM) in the test with Enterobacter cloacae (Culture Number 9382, 35° C.); 0.03 µg/mL (≈ 0.0429 µM) in the test on Escherichia coli (Culture Number 9379, 35° C.); under 0.008 µg/mL with Escherichia coli (Culture Number 9380, 35° C.). Moreover, the MIC with Escherichia coli (Culture Number 9451, 35° C.) is under 0.008 µg/mL; with Escherichia coli (Culture Number 9952, 35° C.) it was 0.015 µg/mL (≈ 0.0215 µM); in the test with Klebsiella oxytoca (Culture Number 9383, 35° C.) it was 0.25 µg/mL (≈ 0.358 µM); in the test with Klebsiella oxytoca (Culture Number 9384, 35° C.), 0.06 µg/mL (≈ 0.0859 µM); with Klebsiella pneumoniae, 0.5 µg/mL (≈ 0.716 µM); with Proteus vulgaris it was 0.06 µg/mL (≈ 0.0859 µM). Also, the MIC in the test with Pseudomonas aeruginosa (Culture Number 231, 35° C.) was 0.125 µg/mL (≈ 0.179 µM); in the test on Pseudomonas aeruginosa (Culture Number 6676, 35° C.), 0.5 µg/mL (≈ 0.716 µM); in the test on Pseudomonas aeruginosa (Culture Number 9191, 35° C.) it was 0.125 µg/mL (≈ 0.179 µM); in the test with Serratia marcescens it was 0.06 µg/mL (≈ 0.0859 µM); in the test with Staphylococcus aureus (Culture Number 3665) it was over 64 µg/mL; with Streptococcus faecalis (Culture Number 9217), over 64 µg/mL. For the same compound, the MIC in the test with Streptococcus pneumoniae and in the test on Streptococcus pyogenes was over 64 µg/mL throughout. For the same compound, the “Minimum Inhibitory Concentration” value with Staphylococcus aureus (Culture Number 6685), in the test on Staphylococcus aureus (Culture Number 9213) and with Staphylococcus aureus (Culture Number 9218) was over 64 µg/mL each time.

For the compound `C[C@H]1[C@@H](NS(=O)(=O)NC(=O)N2C[C@H](NC(=O)/C(=N\OC(C)(C)C(=O)O)c3csc(N)n3)C2=O)C(=O)NN1C(=O)c1cc(=O)c(O)c[nH]1` [60(p), 3(S)-3-[2-(2-amino-4-thiazoyl)-Z-(2)-(carboxyisopropyloxyimino)-acetamido]-1-[(3-hydroxy-4-pyridon-6-yl)-1-carbonyl-5(S)-methyl-pyrazolidinone-4(R)-amino]-sulfonylaminocarbonyl-2-azetidinone], the MIC in test [1] was 1 µg/mL (≈ 1.43 µM); with Citrobacter freundii, 0.06 µg/mL (≈ 0.0859 µM); in the test on Enterobacter cloacae (Culture Number 9381, 35° C.), 8 µg/mL (≈ 11.5 µM); with Enterobacter cloacae (Culture Number 9382, 35° C.), 2 µg/mL (≈ 2.86 µM); in the test with Escherichia coli (Culture Number 9379, 35° C.) it was 0.03 µg/mL (≈ 0.0429 µM); in the test on Escherichia coli (Culture Number 9380, 35° C.) it was 0.015 µg/mL (≈ 0.0215 µM). Also, the MIC was 0.015 µg/mL (≈ 0.0215 µM) in the test with Escherichia coli (Culture Number 9451, 35° C.); 0.015 µg/mL (≈ 0.0215 µM) with Escherichia coli (Culture Number 9952, 35° C.); 0.125 µg/mL (≈ 0.179 µM) in the test with Klebsiella oxytoca (Culture Number 9383, 35° C.); 0.06 µg/mL (≈ 0.0859 µM) with Klebsiella oxytoca (Culture Number 9384, 35° C.); 0.5 µg/mL (≈ 0.716 µM) in the test on Klebsiella pneumoniae; 0.06 µg/mL (≈ 0.0859 µM) in the test on Proteus vulgaris. Also, the MIC was 0.125 µg/mL (≈ 0.179 µM) in the test with Pseudomonas aeruginosa (Culture Number 231, 35° C.); 0.25 µg/mL (≈ 0.358 µM) in the test on Pseudomonas aeruginosa (Culture Number 6676, 35° C.); 0.06 µg/mL (≈ 0.0859 µM) with Pseudomonas aeruginosa (Culture Number 9191, 35° C.); 0.06 µg/mL (≈ 0.0859 µM) with Serratia marcescens; over 64 µg/mL in the test on Staphylococcus aureus (Culture Number 3665); over 64 µg/mL with Streptococcus faecalis (Culture Number 9217). For the same compound, the MIC with Streptococcus pneumoniae and with Streptococcus pyogenes was over 64 µg/mL in each case. For the same compound, the “Minimum Inhibitory Concentration” value in the test on Staphylococcus aureus (Culture Number 6685), with Staphylococcus aureus (Culture Number 9213) and in the test with Staphylococcus aureus (Culture Number 9218) was over 64 µg/mL in each case.

The values above are taken from patent US5015737A, “Therapeutically useful beta-lactams” (The Upjohn Company, priority 1990, dated 1991).
